Columns and labels:
healthy mice = assay: Biodistribution in healthy male and female mice; type: in vivo; conditions: 1 h p.i.
Protocol: Two groups of healthy mice (males and females; n = 4/group) were injected with 10 pmol of [^68Ga]Ga-DOTA.SA.FAPi (0.08–0.1 MBq) in 100 µL of NaCl 0.9% and biodistribution studies were conducted at 1 h p.i. (Supplemental Data).

CAFs = assay: Externalization studies in CAFs; type: cell-based, human; conditions: after 24 h at 37 °C
Protocol: For saturation studies, CAFs were incubated with increasing concentrations of the radiotracers (0.1–10 nM). For internalization studies, approximately 2.5 pmol of the radiotracers were added to CAFs followed by incubation for 15, 30, 60, 90, 120, 180 and 240 min for the ^68Ga-labeled or 30, 60, 120, 240 and 360 min for the ^177Lu-labeled radiotracers at 37 °C, 5% CO2. For the externalization studies, approximately 2.5 pmol of the ^177Lu-labeled radiotracers were added to CAFs followed by incubation for 2 h at 37 °C, 5% CO2. Afterward, the amount of the externalized activity from the CAFs was determined at 0, 10, 20, 30, 60, 120, 240, and 1440 min (Supplemental Data).
Saturation Binding Studies […]
At each time point, the internalization was stopped by putting the plates on ice, removing the me-dium, and washing the cells twice with ice-cold PBS. […] The radioactivity of the culture medium, the receptor bound, and the internal-ized fractions were measured in a γ-counter.
The externalization rate of [177Lu]Lu-DOTA.SA.FAPi and [177Lu]Lu-DOTAGA.(SA.FAPi)2 was studied af-ter CAFs were incubated for 2 h with 2.5 pmol/well of each 177Lu-lebeled radioligand. […] The radioactivity of the culture medium, the receptor bound , the internalized and the externalized fractions were measured in a γ -counter. […]

Structure (SMILES): N#C[C@@H]1CC(F)(F)CN1C(=O)CNC(=O)c1ccnc2ccc(OCCCCNc3c(NCCNC(=O)CN4CCN(CC(=O)[O-])CCN(CC(=O)[O-])CCN(CC(=O)[O-])CC4)c(=O)c3=O)cc12.[68Ga+3] [[^68Ga]Ga-DOTA.SA.FAPi]
- Biodistribution Blood (healthy mice; healthy female mice): 13.5 ± 4.1 % IA/g
- Biodistribution Bone (healthy mice; healthy female mice): 5.0 ± 0.2 % IA/g
- Biodistribution Heart (healthy mice; healthy female mice): 5.1 ± 0.9 % IA/g
- Biodistribution Intestine (healthy mice; healthy female mice): 3.0 ± 0.3 % IA/g
- Biodistribution Kidney (healthy mice; healthy female mice): 5.0 ± 0.7 % IA/g
- Biodistribution Liver (healthy mice; healthy female mice): 3.3 ± 0.4 % IA/g
- Biodistribution Lung (healthy mice; healthy female mice): 4.3 ± 1.6 % IA/g
- Biodistribution Muscle (healthy mice; healthy female mice): 6.3 ± 3.4 % IA/g
- Biodistribution Pancreas (healthy mice; healthy female mice): 7.6 ± 2.6 % IA/g
- Biodistribution Spleen (healthy mice; healthy female mice): 2.7 ± 0.7 % IA/g
- Biodistribution Stomach (healthy mice; healthy female mice): 1.7 ± 0.04 % IA/g
- Biodistribution Blood (healthy mice; healthy male mice): 8.5 ± 0.1 % IA/g
- Biodistribution Bone (healthy mice; healthy male mice): 1.5 ± 0.9 % IA/g
- Biodistribution Heart (healthy mice; healthy male mice): 3.1 ± 0.04 % IA/g
- Biodistribution Intestine (healthy mice; healthy male mice): 3.1 ± 0.2 % IA/g
- Biodistribution Kidney (healthy mice; healthy male mice): 3.5 ± 0.4 % IA/g
- Biodistribution Liver (healthy mice; healthy male mice): 2.3 ± 0.1 % IA/g
- Biodistribution Lung (healthy mice; healthy male mice): 2.7 ± 0.6 % IA/g
- Biodistribution Muscle (healthy mice; healthy male mice): 2.0 ± 0.3 % IA/g
- Biodistribution Pancreas (healthy mice; healthy male mice): 8.6 ± 0.1 % IA/g
- Biodistribution Spleen (healthy mice; healthy male mice): 2.3 ± 0.1 % IA/g
- Biodistribution Stomach (healthy mice; healthy male mice): 2.0 ± 0.3 % IA/g

Structure (SMILES): N#C[C@@H]1CC(F)(F)CN1C(=O)CNC(=O)c1ccnc2ccc(OCCCCNc3c(NCCNC(=O)CN4CCN(CC(=O)[O-])CCN(CC(=O)[O-])CCN(CC(=O)[O-])CC4)c(=O)c3=O)cc12.[177Lu+3] [[^177Lu]Lu-DOTA.SA.FAPi]
- Total internalized activity released from the CAFs into the medium (CAFs): more than 93%
- Total internalized activity remaining in the CAFs (CAFs): 7%

Reference: article PMC11243320, “Tailoring Fibroblast-Activation Protein Targeting for Theranostics: A Comparative Preclinical Evaluation of the ^68Ga- and ^177Lu-Labeled Monomeric and Dimeric Fibroblast-Activation Protein Inhibitors DOTA.SA.FAPi and DOTAGA.(SA.FAPi)2” (Molecules, 2024)
